# Experimental data published in US11273217B2, “Cancer treatment composition combining anti-CD26 antibody and other anticancer agent” (Y's AC Co., Ltd., priority 2015, dated 2022).
# Test system: H2452 cells
# Experiment: In vivo H2452 cell growth in SCID mice (tumor weight)
# Conditions: YS110 10 mg/kg, cisplatin 0.5 mg/kg, pemetrexed 50 mg/kg, intraperitoneal, days 1 and 4; tumor weight day 7
# Description: H2452 cells (3×10^5 cells/animal) were subcutaneously transplanted to the backs of female SCID mice. The day of transplantation was defined as day 0. YS110 (10 mg/kg) alone, cisplatin (0.5 mg/kg)-pemetrexed (50 mg/kg) used concomitantly, or YS110 (10 mg/kg) used concomitantly with the cisplatin-pemetrexed concomitant use was intraperitoneally administered to the mice twice (days 1 and 4). At day 7, their tumors were excised, and the tumor weights were measured. Significant difference was tested by two-tailed t-test (vs Cont).
substance,measurement,value
YS110: humanized anti-CD26 antibody designed based on anti-CD26 mouse antibody 14D10; SEQ ID NO: 17 and 18,effect of YS110 on the in vivo tumor growth inhibitory effect of cisplatin-pemetrexed,potentiated
